These results are taken from patent publication US11173151B2, “Substituted triazole derivatives and uses thereof” (BAYER AKTIENGESELLSCHAFT, priority 2017, dated 2021).

Test [1] addresses T1, human V2 receptor (Homo sapiens, UniProt P30518).
T1 construct: expressed in transfected cells; host or cells: CHO K1 (ATCC) expressing firefly luciferase under a CRE-responsive promoter
The test is described as follows: Cellular in vitro assay for determining vasopressin receptor activity, V2 receptor cell line (CHO, CRE-luciferase). Type of test: cell-based. Conditions: CHO cell line transfected with human V2 receptor; [Arg8]-vasopressin at EC50 concentration, 3 hours; read-out: IC50 hV2.

In test [2] the target is T2, human V1a receptor (Homo sapiens, UniProt P37288).
T2 construct: expressed in transfected cells; host or cells: CHO K1 (ATCC), also stably transfected with a modified aequorin
The test is described as follows: Cellular in vitro assay for determining vasopressin receptor activity, V1a receptor cell line (CHO, aequorin luminescence). Type of test: cell-based. Conditions: for pIC50: CHO cell line transfected with human V1a receptor, [Arg]-vasopressin at EC50 concentration, read-out: IC50 hV1a; for ratio IC50 hV2/hV1a: selectivity ratio IC50 hV2 / IC50 hV1a. An outline of the steps:
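Cells were plated the day before in medium containing 5 μg/ml coelenterazine and kept at 37° C. Compounds at various concentrations were then added for 10 minutes. Next, [Arg]-vasopressin at EC50 was applied and light output recorded at once, yielding IC50.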

pIC50: −log10 of the molar value.

T1 sequence (P30518 whole entry): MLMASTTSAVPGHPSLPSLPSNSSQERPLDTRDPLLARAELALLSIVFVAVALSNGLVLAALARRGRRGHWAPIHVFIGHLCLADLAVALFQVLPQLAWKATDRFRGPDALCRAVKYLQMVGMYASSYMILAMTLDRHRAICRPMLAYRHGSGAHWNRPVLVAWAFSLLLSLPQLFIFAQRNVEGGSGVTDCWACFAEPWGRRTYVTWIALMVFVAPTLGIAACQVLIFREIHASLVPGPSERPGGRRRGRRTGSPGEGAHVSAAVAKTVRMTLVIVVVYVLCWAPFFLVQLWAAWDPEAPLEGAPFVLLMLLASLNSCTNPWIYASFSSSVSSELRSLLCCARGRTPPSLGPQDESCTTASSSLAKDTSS
T2 sequence (P37288 whole entry): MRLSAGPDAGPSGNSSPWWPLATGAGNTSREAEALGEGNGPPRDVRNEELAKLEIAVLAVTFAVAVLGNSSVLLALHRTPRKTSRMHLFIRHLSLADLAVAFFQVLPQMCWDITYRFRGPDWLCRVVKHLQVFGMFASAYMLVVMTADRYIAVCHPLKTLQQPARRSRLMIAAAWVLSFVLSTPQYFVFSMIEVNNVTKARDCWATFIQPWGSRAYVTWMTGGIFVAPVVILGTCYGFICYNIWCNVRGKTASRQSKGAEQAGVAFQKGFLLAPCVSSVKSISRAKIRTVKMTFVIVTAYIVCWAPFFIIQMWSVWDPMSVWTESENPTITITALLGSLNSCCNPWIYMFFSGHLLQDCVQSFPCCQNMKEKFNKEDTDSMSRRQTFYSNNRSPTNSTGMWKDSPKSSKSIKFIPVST

`O=C(Nc1ncccc1-n1cnc(Cn2nc(-c3ccc(Cl)cc3)n(C[C@H](O)C(F)(F)F)c2=O)n1)C1CC1F` (stereo partly drawn) [Example 85, N-{3-[3-({3-(4-Chlorophenyl)-5-oxo-4-[(2S)-3,3,3-trifluoro-2-hydrxypropyl]-4,5-dihydro-1H-1,2,4-triazol-1-yl}methyl)-1H-1,2,4-triazol-1-yl]pyridin-2-yl}-2-fluorocyclopropanecarboxamide]: the pIC50 in test [1] was 5.31. For the same molecule, in test [2], the negative logarithm of the IC50 (pIC50) was 8.13 and the “ratio IC50 hV2/hV1a” value was 673.5.

In the case of `O=C(CC1CC1)Nc1ncccc1-n1cnc(Cn2nc(-c3ccc(Cl)cc3)n(C[C@H](O)C(F)(F)F)c2=O)n1` [Example 87, N-{3-[3-({3-(4-Chlorophenyl)-5-oxo-4-[(2S)-3,3,3-trifluoro-2-hydroxypropyl]-4,5-dihydro-1H-1,2,4-triazol-1-yl}methyl)-1H-1,2,4-triazol-1-yl]pyridin-2-yl}-2-cyclopropylacetamide], the figures for the pIC50 in test [1] and in test [2] were 5.96 and 8.32, respectively. In addition, in test [2], the “ratio IC50 hV2/hV1a” value came to 228.1.

For `O=C(Cn1cncn1)Nc1ncccc1-n1cnc(Cn2nc(-c3ccc(Cl)cc3)n(C[C@H](O)C(F)(F)F)c2=O)n1` [Example 88, N-{3-[3-({3-(4-Chlorophenyl)-5-oxo-4-[(2S)-3,3,3-trifluoro-2-hydroxypropyl]-4,5-dihydro-1H-1,2,4-triazol-1-yl}methyl)-1H-1,2,4-triazol-1-yl]pyridin-2-yl}-2-(1H-1,2,4-triazol-1-yl)acetamide], in test [1], the negative-log IC50 (pIC50) is 5.93. In test [2], the pIC50 is 7.39 and the “ratio IC50 hV2/hV1a” value is given as 28.7.

With `O=C(Cc1cccnc1)Nc1ncccc1-n1cnc(Cn2nc(-c3ccc(Cl)cc3)n(C[C@H](O)C(F)(F)F)c2=O)n1` [Example 89], the pIC50 in test [1] was 5.73; in test [2] it was 7.44. In addition, the “ratio IC50 hV2/hV1a” value in test [2] was determined as 51.4.

`CN1CC(C(=O)Nc2ncccc2-n2cnc(Cn3nc(-c4ccc(Cl)cc4)n(C[C@H](O)C(F)(F)F)c3=O)n2)CC1=O` (stereo partly drawn) [Example 90]: the pIC50 in test [1] is 5.81. For the same molecule, in test [2], the pIC50 was 7.05 and the “ratio IC50 hV2/hV1a” value was 17.2.

Regarding `O=C(CN1CCCC1=O)Nc1ncccc1-n1cnc(Cn2nc(-c3ccc(Cl)cc3)n(C[C@H](O)C(F)(F)F)c2=O)n1` [Example 91], the pIC50 in test [1] was 5.90. For the same molecule, in test [2], the pIC50 is 6.71 and the “ratio IC50 hV2/hV1a” value is reported as 6.4.

Turning to `Cc1cnn(CC(=O)Nc2ncccc2-n2cnc(Cn3nc(-c4ccc(Cl)cc4)n(C[C@H](O)C(F)(F)F)c3=O)n2)c1` [Example 92], the pIC50 in test [1] was 5.76. Also, in test [2], the pIC50 is 6.62 and the “ratio IC50 hV2/hV1a” value worked out at 7.3.

In the case of `O=C(Nc1ncccc1-n1cnc(Cn2nc(-c3ccc(Cl)cc3)n(C[C@H](O)C(F)(F)F)c2=O)n1)c1cncc(F)c1` [Example 93], in test [1], the pIC50 was 6.30. Moreover, in test [2], the pIC50 was 8.12 and the “ratio IC50 hV2/hV1a” value is 66.0.

In the case of `Cc1nccn1CC(=O)Nc1ncccc1-n1cnc(Cn2nc(-c3ccc(Cl)cc3)n(C[C@H](O)C(F)(F)F)c2=O)n1` [Example 94], in test [1], the pIC50 is 5.65. In test [2], the pIC50 was 7.80 and the “ratio IC50 hV2/hV1a” value is 140.6.

For `O=C(Nc1ncccc1-n1cnc(Cn2nc(-c3ccc(Cl)cc3)n(C[C@H](O)C(F)(F)F)c2=O)n1)c1ccccc1` [Example 95], in test [1], the pIC50 is 5.67. Moreover, in test [2], the pIC50 is 7.04 and the “ratio IC50 hV2/hV1a” value is given as 23.4.

For the molecule `CNCC(=O)Nc1ncccc1-n1cnc(Cn2nc(-c3ccc(Cl)cc3)n(C[C@H](O)C(F)(F)F)c2=O)n1` [Example 96], the results for the pIC50 in test [1] and in test [2] were 6.25 and 8.68, respectively. Moreover, the “ratio IC50 hV2/hV1a” value in test [2] is on record as 266.7.

With `O=C(Cc1ccccc1)Nc1ncccc1-n1cnc(Cn2nc(-c3ccc(Cl)cc3)n(C[C@H](O)C(F)(F)F)c2=O)n1` [Example 97], in test [1], the pIC50 was 5.69. In test [2], the pIC50 was 6.87 and the “ratio IC50 hV2/hV1a” value came out at 15.2.

With `CC1(C(=O)Nc2ncccc2-n2cnc(Cn3nc(-c4ccc(Cl)cc4)n(C[C@H](O)C(F)(F)F)c3=O)n2)CCCO1` (stereo partly drawn) [Example 98], the negative logarithm of the IC50 (pIC50) in test [1] was 6.02; in test [2], 6.90. Also, the “ratio IC50 hV2/hV1a” value in test [2] is 7.6.

As to `CC1CC(=O)NC1C(=O)Nc1ncccc1-n1cnc(Cn2nc(-c3ccc(Cl)cc3)n(C[C@H](O)C(F)(F)F)c2=O)n1` (stereo partly drawn) [Example 99], the pIC50 in test [1] is 5.40; in test [2], 7.40. Also, in test [2], the “ratio IC50 hV2/hV1a” value was 100.0.

`O=C(Nc1ncccc1-n1cnc(Cn2nc(-c3ccc(Cl)cc3)n(C[C@H](O)C(F)(F)F)c2=O)n1)c1csnn1` [Example 100]: the pIC50 in test [1] was 5.97. Moreover, in test [2], the negative-log IC50 (pIC50) was 7.58 and the “ratio IC50 hV2/hV1a” value is recorded as 40.2.

For `O=C(Nc1ncccc1-n1cnc(Cn2nc(-c3ccc(Cl)cc3)n(C[C@H](O)C(F)(F)F)c2=O)n1)c1ccccc1O` [Example 101], the pIC50 in test [1] was 5.71; in test [2] it was 6.96. Also, the “ratio IC50 hV2/hV1a” value in test [2] is reported as 17.7.

For the molecule `Cc1cc(C(=O)Nc2ncccc2-n2cnc(Cn3nc(-c4ccc(Cl)cc4)n(C[C@H](O)C(F)(F)F)c3=O)n2)on1` [Example 102], the pIC50 in test [1] was 5.94. In test [2], the pIC50 was 7.10 and the “ratio IC50 hV2/hV1a” value is given as 14.4.

Take `O=C(CN1CCCCC1)Nc1ncccc1-n1cnc(Cn2nc(-c3ccc(Cl)cc3)n(C[C@H](O)C(F)(F)F)c2=O)n1` [Example 103]: the pIC50 is 5.62 in test [1] and 6.81 in test [2]. In test [2], the “ratio IC50 hV2/hV1a” value is 15.5.

For `O=C(Nc1ncccc1-n1cnc(Cn2nc(-c3ccc(Cl)cc3)n(C[C@H](O)C(F)(F)F)c2=O)n1)c1cnccn1` [Example 104], the pIC50 in test [1] is 5.80. Also, in test [2], the pIC50 is 8.08 and the “ratio IC50 hV2/hV1a” value is reported as 193.9.

`O=C(CC1CCCCC1)Nc1ncccc1-n1cnc(Cn2nc(-c3ccc(Cl)cc3)n(C[C@H](O)C(F)(F)F)c2=O)n1` [Example 105]: the pIC50 in test [1] was 5.96; in test [2], 6.89. The “ratio IC50 hV2/hV1a” value in test [2] is on record as 8.5.

`Cn1nccc1C(=O)Nc1ncccc1-n1cnc(Cn2nc(-c3ccc(Cl)cc3)n(C[C@H](O)C(F)(F)F)c2=O)n1` [Example 106]: the negative logarithm of the IC50 (pIC50) in test [1] was 5.92. Also, in test [2], the pIC50 was 8.63 and the “ratio IC50 hV2/hV1a” value came to 510.6.

Regarding `Cc1cccc(C(=O)Nc2ncccc2-n2cnc(Cn3nc(-c4ccc(Cl)cc4)n(C[C@H](O)C(F)(F)F)c3=O)n2)n1` [Example 107], the pIC50 in test [1] is 6.15; in test [2], 8.25. Besides, the “ratio IC50 hV2/hV1a” value in test [2] was found to be 125.7.

As to `Cc1nc(C(=O)Nc2ncccc2-n2cnc(Cn3nc(-c4ccc(Cl)cc4)n(C[C@H](O)C(F)(F)F)c3=O)n2)no1` [Example 108], the pIC50 in test [1] is 6.15. Further, in test [2], the pIC50 is 7.50 and the “ratio IC50 hV2/hV1a” value was 22.2.

As to `CN1CCC(C(=O)Nc2ncccc2-n2cnc(Cn3nc(-c4ccc(Cl)cc4)n(C[C@H](O)C(F)(F)F)c3=O)n2)CC1` [Example 109], the pIC50 in test [1] was 5.17. In test [2], the pIC50 was 6.94 and the “ratio IC50 hV2/hV1a” value worked out at 58.7.

Turning to `CCn1ccc(C(=O)Nc2ncccc2-n2cnc(Cn3nc(-c4ccc(Cl)cc4)n(C[C@H](O)C(F)(F)F)c3=O)n2)n1` [Example 110], the pIC50 in test [1] is 6.28; in test [2], 8.20. Besides, the “ratio IC50 hV2/hV1a” value in test [2] is 83.3.

With `CCn1nccc1C(=O)Nc1ncccc1-n1cnc(Cn2nc(-c3ccc(Cl)cc3)n(C[C@H](O)C(F)(F)F)c2=O)n1` [Example 111], in test [1], the pIC50 is 5.89. Also, in test [2], the pIC50 was 8.33 and the “ratio IC50 hV2/hV1a” value is 276.6.

On to `CCn1cc(C(=O)Nc2ncccc2-n2cnc(Cn3nc(-c4ccc(Cl)cc4)n(C[C@H](O)C(F)(F)F)c3=O)n2)cn1` [Example 112], for which the pIC50 in test [1] was 4.18. In test [2], the negative-log IC50 (pIC50) is 6.77 and the “ratio IC50 hV2/hV1a” value is recorded as 388.2.

In the case of `CC1(C(=O)Nc2ncccc2-n2cnc(Cn3nc(-c4ccc(Cl)cc4)n(C[C@H](O)C(F)(F)F)c3=O)n2)CCCCC1` [Example 113], the pIC50 was 6.08 in test [1] and 7.04 in test [2]. Moreover, the “ratio IC50 hV2/hV1a” value in test [2] turned out to be 9.2.

For the molecule `CC1CC1C(=O)Nc1ncccc1-n1cnc(Cn2nc(-c3ccc(Cl)cc3)n(C[C@H](O)C(F)(F)F)c2=O)n1` (stereo partly drawn) [Example 114], the values for the pIC50 in test [1] and in test [2] were 6.62 and 7.72, respectively. For the same molecule, the “ratio IC50 hV2/hV1a” value in test [2] came to 12.6.

Take `O=C(Nc1ncccc1-n1cnc(Cn2nc(-c3ccc(Cl)cc3)n(C[C@H](O)C(F)(F)F)c2=O)n1)C1CCC1` [Example 115]: the negative-log IC50 (pIC50) in test [1] was 6.31. Moreover, in test [2], the pIC50 is 7.51 and the “ratio IC50 hV2/hV1a” value came out at 15.8.

Take `O=C(Nc1ncccc1-n1cnc(Cn2nc(-c3ccc(Cl)cc3)n(C[C@H](O)C(F)(F)F)c2=O)n1)c1ccccc1F` [Example 116]: the pIC50 in test [1] was 5.94. In addition, in test [2], the pIC50 was 7.11 and the “ratio IC50 hV2/hV1a” value was 14.7.

Consider `CC(C)(C)C(=O)Nc1ncccc1-n1cnc(Cn2nc(-c3ccc(Cl)cc3)n(C[C@H](O)C(F)(F)F)c2=O)n1` [Example 117], for which the pIC50 is 5.98 in test [1] and 7.18 in test [2]. Also, the “ratio IC50 hV2/hV1a” value in test [2] is given as 16.0.

With `CC1(C(=O)Nc2ncccc2-n2cnc(Cn3nc(-c4ccc(Cl)cc4)n(C[C@H](O)C(F)(F)F)c3=O)n2)COC1` [Example 118], the negative logarithm of the IC50 (pIC50) in test [1] is 5.94. Further, in test [2], the pIC50 was 6.85 and the “ratio IC50 hV2/hV1a” value is given as 8.2.

As to `CC[C@H](C)C(=O)Nc1ncccc1-n1cnc(Cn2nc(-c3ccc(Cl)cc3)n(C[C@H](O)C(F)(F)F)c2=O)n1` [Example 119], the pIC50 in test [1] was 6.57. Also, in test [2], the pIC50 was 7.46 and the “ratio IC50 hV2/hV1a” value is on record as 7.7.

By pIC50 is commonly meant −log10 of the IC50, conventionally taken in molar units.
